{"source": "patent US20250319073A1", "about": "“COMPOSITIONS AND METHODS FOR THE TREATMENT OF HUNTINGTON’S DISEASE AND HTT PROTEINOPATHIES” (priority 2022, published 2025)", "tested_on": "Peripheral Blood Mononuclear Cells (PBMC)", "experiment": "CellTiter-Glo 2.0 ATP level assay in PBMCs of treated mice", "type": "in vivo, mouse", "conditions": "R6/2 mice, 0.5 mg/kg / 5 mg/kg i.p. QD, PBMCs collected at 13 weeks of age", "description": "Euthanasia & Sample Collection—At 13 weeks of age, 9 mice per group were euthanized by deep anesthesia with sodium pentobarbital (180 mg/kg). The remaining mice were euthanized and any samples were not collected, except the tail and ear samples. A terminal blood sample (as much as possible) was collected by cardiac puncture into a syringe. The whole blood was placed in Li-Hep tube at RT and used immediately for preparation of PBMCs. The whole brain was collected and fresh frozen in liquid nitrogen and stored at −80° C. Blood was collected also from extra animals as staining controls for the flow cytometry assays (n=3 extra animals per day). […]\nPBMC Extraction—Whole blood (approximately 400-500 μL) was stored at room temperature (RT) before the start of the PBMC isolations. […] Right before measurement 1 μL of propidium iodide was added and the cell number and viability was determined by MACSquant Analyzer 10 flow cytometer. […]\nThe cells were analyzed immediately after the staining using the MACSQuant Analyzer 10 (Miltenyi Biotec) and Cytation 3 (Cell titerglow). […]\nATP Levels: CellTiter-Glo 2.0® Assay—The CellTiter-Glo® 2.0 Assay provides a homogeneous method to determine the number of viable cells in culture by quantitating the amount of ATP present, which indicates the presence of metabolically active cells. […]\n• 1. […] Place 50,000 cells/well white walled luminescence suitable plate in DPBS. • 3. […]", "data": [{"smiles": "Cc1cc(O)cc(C)c1C[C@H](NC(=O)[C@H](N)CCCNC(=N)N)C(=O)N[C@@H](CCCCN)c1nc(Cc2ccccc2)no1.Cl.Cl", "note": "[Compound (Ia), (R)-2-amino-N—((S)-1-(((S)-5-amino-1-(3-benzyl-1,2,4-oxadiazol-5-yl)pentyl)amino)-3-(4-hydroxy-2,6-dimethylphenyl)-1-oxopropan-2-yl)-5-guanidinopentanamide]", "values": [{"measurement": "ATP levels (Cell Titer Glow) in PBMCs, R6/2+Vehicle vs treated R6/2", "result": "no significant differences"}]}]}
